Data on one compound can be found in patent US20120225905A1, “BEPOTASTINE COMPOSITIONS” (Mitsubishi Tanabe Pharma Corporation, priority 2010, published 2012).

The structures appear in SMILES notation.

This data set is described as follows: Clinical Example 1: pharmacokinetic assessments. The format is in vivo, human. The conditions noted are these: plasma, noncompartmental PK analysis. How it is done:
At Visit 3 (a minimum of 3 days after Visit 2), a subset of approximately 35 subjects who qualified at Visit 2 were randomized and began PK blood draws in the clinic that occurred over 24 hours for placebo, 2%, 4%, or 6% dosages of bepotastine besilate (using a randomization ratio of 1:1:1:1). There were approximately nine subjects in each of the four treatment groups. Blood sampling for PK assessments was drawn within 90 minutes (pre-dose). Subjects were dosed and additional blood samples were collected at 10, 20, 30, and 45 minutes post-dose and at 1, 1.25, 2, 3, 4, 6, 10, and 12 hours post-dose while remaining in the clinic. Subjects returned the next day for a 24 hour post-dose PK blood draw. PK blood draws at 1, 1.25, 2, 3, 4, 6, 10, and 12 hours post-dose were within a ±1 minute window and at 24 hours post dose were within a ±60 minute window.
All subjects who qualified at Visit 2 returned to the clinic for Visit 4 following a minimum ten day washout period. At Visit 4, subjects recorded individual nasal and ocular symptoms on 0-3 unit scales prior to entering the EEC and every 30 minutes for the first two hours while in the EEC, including just prior to dosing. […] At the end of Visit 4, subjects recorded reflective nasal symptom scores, summarizing their subjective opinion of each nasal and ocular symptom score (same 0-3 unit scales), over the entire post-dosing period in the EEC. […]

`O=C(O)CCCN1CCC(O[C@@H](c2ccc(Cl)cc2)c2ccccn2)CC1` [bepotastine, (+)-(S)-4-[4-[(4-chlorophenyl)(2-pyridyl)methoxy]piperidino]butyric acid]: the “absorption from the nasal sprays” value was “absorbed quickly” and the half-life result is “short”.
